Reference: paper PMC6929626, “PET/MRI enables simultaneous in vivo quantification of β-cell mass and function” (Theranostics, 2020)

Tested on: isolated pancreatic islets
Assay: Glucose-dependent insulin secretion of isolated islets after in vivo MnCl2:Bicine (radioimmunoassay)
Set-up: species or system mice
Description: The chronic exposure to high concentrations of Mn can potentially lead to cytotoxic effects on heart, liver and brain [26]. We hypothesized that the early and late retention of Mn might impair the physiological integrity of the glucose-dependent insulin response of islet cells. To investigate the physiological function of the islets, glucose-dependent insulin secretion was measured in vitro 1 or 24 h after a single systemic in vivo administration of MnCl2:Bicine solution (75 µmol/kg) on a new group of mice (Table. 1, Group 4). Secretion assays were performed on isolated islets, followed by quantification of insulin content using radioimmunoassay. The response to glucose of each individual mouse was assessed by calculating the enhancement of insulin secretion between basal (3 mM) and stimulating glucose concentration (15 mM).
Before the isolation of islets, control and RIP1-Tag2 mice previously anesthetized using 1-2% isoflurane/O2 gas mixture (Vetland, Louisville, KY, USA) and intravenously injected with a bolus of MnCl2:Bicine solution (75 µmol/kg), analogously to the in vivo imaging protocol. […] The content of insulin in the supernatant was determined by radioimmunoassay using as insulin standards Millipore 8013-K (Merck, Darmstadt, DE). […]

- effect of contrast agent accumulation on glucose-dependent insulin secretion response (islets isolated 1 h and 24 h after single i.v. 75 µmol/kg, 8-wk old control and RIP1-Tag2 mice): not affected
- enhancement of insulin secretion, stimulating (15 mM) vs basal (3 mM) glucose (islets of 8-wk old control and RIP1-Tag2 mice isolated 1 or 24 h after single i.v. 75 µmol/kg, radioimmunoassay, n=3/3): 10-20 times
Substance: MnCl2:Bicine
